SMILES strings stand for the structures.

The first assay deals with T1, NMDA receptor composed of four subunits including 2 sets of heterodimers of NR1 and NR2B (Homo sapiens, UniProt Q13224).
T1 construct: host or cells: HEK293 (tetracycline-induced expression)
T1 sequence (Q13224 27-1484, other chains not shown): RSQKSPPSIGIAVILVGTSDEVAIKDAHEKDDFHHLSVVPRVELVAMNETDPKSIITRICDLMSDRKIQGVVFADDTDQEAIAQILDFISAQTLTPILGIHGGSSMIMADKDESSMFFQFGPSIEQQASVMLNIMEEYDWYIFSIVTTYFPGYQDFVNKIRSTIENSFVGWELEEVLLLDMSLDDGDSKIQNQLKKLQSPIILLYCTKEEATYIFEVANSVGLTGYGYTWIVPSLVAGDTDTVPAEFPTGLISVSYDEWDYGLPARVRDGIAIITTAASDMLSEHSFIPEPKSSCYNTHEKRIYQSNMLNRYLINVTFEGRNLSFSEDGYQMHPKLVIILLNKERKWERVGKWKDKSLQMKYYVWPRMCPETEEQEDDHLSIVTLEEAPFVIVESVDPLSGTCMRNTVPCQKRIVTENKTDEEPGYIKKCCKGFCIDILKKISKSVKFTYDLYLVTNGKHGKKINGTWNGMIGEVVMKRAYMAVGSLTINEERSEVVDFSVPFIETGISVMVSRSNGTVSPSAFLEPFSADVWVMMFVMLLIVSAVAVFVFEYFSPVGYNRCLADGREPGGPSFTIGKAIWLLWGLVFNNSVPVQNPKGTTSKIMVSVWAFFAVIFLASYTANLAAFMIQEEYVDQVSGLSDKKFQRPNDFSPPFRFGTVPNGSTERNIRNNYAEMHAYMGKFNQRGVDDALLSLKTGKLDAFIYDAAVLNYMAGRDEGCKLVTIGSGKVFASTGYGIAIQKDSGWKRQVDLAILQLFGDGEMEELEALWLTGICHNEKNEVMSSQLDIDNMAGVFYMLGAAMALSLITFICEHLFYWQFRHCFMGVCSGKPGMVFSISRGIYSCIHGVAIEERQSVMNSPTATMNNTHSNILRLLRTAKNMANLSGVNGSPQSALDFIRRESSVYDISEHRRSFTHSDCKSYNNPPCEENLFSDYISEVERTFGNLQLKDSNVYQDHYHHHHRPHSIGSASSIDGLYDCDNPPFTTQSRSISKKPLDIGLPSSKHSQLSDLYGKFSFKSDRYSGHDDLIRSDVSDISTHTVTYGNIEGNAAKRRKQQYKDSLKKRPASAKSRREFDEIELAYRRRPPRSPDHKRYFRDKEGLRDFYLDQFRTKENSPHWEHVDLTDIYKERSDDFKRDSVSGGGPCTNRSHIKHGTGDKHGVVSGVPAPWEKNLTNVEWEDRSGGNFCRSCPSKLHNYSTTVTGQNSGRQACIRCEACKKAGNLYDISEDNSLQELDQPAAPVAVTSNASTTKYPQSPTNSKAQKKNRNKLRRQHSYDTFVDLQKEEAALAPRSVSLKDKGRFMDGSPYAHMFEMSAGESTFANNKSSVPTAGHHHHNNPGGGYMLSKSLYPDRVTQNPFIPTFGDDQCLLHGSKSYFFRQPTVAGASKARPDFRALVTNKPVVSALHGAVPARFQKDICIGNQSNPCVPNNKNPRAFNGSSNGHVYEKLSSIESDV
Nature of the assay: NR2B Ca2+ influx assay (FLIPR, Fluo-4) in HEK293 cells expressing human GRIN1 and GRIN2B. Format: cell-based. Conditions: 10 μM final compound concentration, glutamic acid/glycine-induced Ca2+ influx. The essentials: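 Tetracycline-induced (2 h) HEK293 cells expressing human GRIN1/GRIN2B, Fluo-4-loaded, were preincubated 15 min at room temperature with compound at 10 μM final. FLIPR recorded Ca2+ influx every 3 s for 5 min after glutamate/glycine addition (30 μM in added buffer); inhibition from cumulative fluorescence relative to agonist-free wells.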
Take `COc1ccc2ncn(C)c2c1CNC(=O)c1ccc(C(F)(F)F)s1` [Example 50, N-((6-methoxy-1-methyl-1H-benzimidazol-7-yl)-methyl)-5-(trifluoro-methyl)thiophene-2-carboxainide]: the “inhibitory rate (10 μM compound concentration)” value worked out at 89.

Still in this assay, the particulars now being: HEK293, 10 μM final compound concentration, glutamic acid/glycine-induced Ca2+ influx, read-out: inhibitory rate (10 μM compound concentration).
For `O=C(NCc1c(C2CC2)ccc2[nH]ncc12)c1cc(Cl)c(F)c(Cl)c1` [Example 86, 3,5-dichloro-N-((5-cyclopropyl-1H-indazol-4-yl)methyl)-4-fluorobenzamide], the inhibition at 10 µM is 94%. `COc1ccc(C(=O)NCc2c(C3CC3)ccc3[nH]ncc23)cc1F` [Example 94, N-((5-cyclopropyl-1H-indazol-4-yl)methyl)-3-fluoro-4-methoxy-benzamide]: the inhibition at 10 µM was 93%.

`COc1ccc2ncn(C)c2c1CNC(=O)c1ccc(Cl)cc1` [Example 116, 4-chloro-N-((6-methoxy-1-methyl-1H-benzimidazol-7-yl)methyl)benzamide]: the inhibition at 10 µM came to 90%. Consider `COc1ccc(NC(=O)NCc2c(OC)ccc3ncn(C)c23)cc1F` [Example 225, 1-(3-fluoro-4-methoxyphenyl)-3-((6-methoxy-1-methyl-1H-benzimidazol-7-yl)methyl)urea], for which the inhibition at 10 µM came out at 84%. With `O=C(NCc1c(C2CC2)ccc2[nH]ncc12)c1cc(Cl)c(Cl)s1` [Example 83, 4,5-dichloro-N-((5-cyclopropyl-1H-indazol-4-yl)methyl)thiophene-2-carboxamide], the inhibition at 10 µM is 93%. Turning to `COc1ncc(C(=O)NCc2c(C3CC3)ccc3ncn(C)c23)cc1F` [Example 20, N-((6-cyclopropyl-1-methyl-1H-benzimidazol-7-yl)methyl)-5-fluoro-6-methoxynicotinamide], the inhibition at 10 µM was 90%. `Cc1ccc2ncn(C)c2c1CNC(=O)c1ccc(C(F)F)c(F)c1` [Example 136, 4-(difluoromethyl)-N-((1,6-dimethyl-1H-benzimidazol-7-yl)methyl)-3-fluorobenzamide]: the inhibition at 10 µM was 83%. In the case of `CCc1cc(C(=O)NCc2c(OC)ccc3ncn(C)c23)cs1` [Example 29], the inhibition at 10 µM amounted to 91%. Consider `O=C(NCc1c(C2CC2)ccc2[nH]ncc12)c1cnc(OC(F)F)c(Cl)c1` [Example 121, 5-chloro-N-((5-cyclopropyl-1H-indazol-4-yl)methyl)-6-(difluoromethoxy)-nicotinamide], for which the inhibition at 10 µM stood at 91%. On to `COc1ncc(C(=O)NCc2c(C3CC3)ccc3[nH]nnc23)cc1F` [Example 165, N-((5-cyclopropyl-1H-benzotriazol-4-yl)methyl)-5-fluoro-6-methoxynicotinamide], for which the inhibition at 10 µM worked out at 91%.

For the molecule `COc1ccc2ncn(C)c2c1CNC(=O)c1cc(Cl)c(Cl)s1` [Example 53, 4,5-dichloro-N-((6-methoxy-1-methyl-1H-benzimidazol-7-yl)-methyl)thiophene-2-carboxamide], the inhibition at 10 µM was 91%. With `COc1ccc2ncn(C)c2c1CNC(=O)Nc1cccc(C(F)(F)F)c1` [Example 222, 1-((6-methoxy-1-methyl-lH-benzimidazol-7-yl)methyl)-3-(3-(trifluoromethyl)-phenyl)urea], the inhibition at 10 µM was found to be 55%.

Turning to `COc1ccc2ncn(C)c2c1CNC(=O)c1ccc(OC(F)F)cc1F` [Example 277, 4-(difluoromethoxy)-2-fluoro-N-[(6-methoxy-1-methyl-1H-benzimidazol-7-yl)methyl]benzamide], the inhibition at 10 µM stood at 63%. As to `COc1ccc2nc(C)n(C)c2c1CNC(=O)c1ccc(OC(F)F)cc1` [Example 245, 4-(difluoromethoxy)-N-((6-methoxy-1,2-dimethyl-1H-benzimidazol-7-yl)methyl)benzamide], the inhibition at 10 µM amounted to 81%.

For `O=C(NCc1c(C2CC2)ccc2[nH]ncc12)c1ccc(OC(F)(F)F)cc1` [Example 62, N-((5-cyclopropyl-1H-indazol-4-yl)methyl)-4-(trifluoromethoxy)-benzamide], the inhibition at 10 µM turned out to be 94%.

As to `COc1csc(C(=O)NCc2c(C3CC3)ccc3[nH]ncc23)c1` [Example 68, N-((5-cyclopropyl-1H-indazol-4-yl)methyl)-methoxythiophene-2-carboxamide], the inhibition at 10 µM amounted to 86%. Still for that read-out and setting: the value for `Cc1ccc2[nH]nnc2c1CNC(=O)c1ccc(OC(F)(F)F)cc1` [Example 194, N-((5-methyl-1H-benzotriazol-4-yl)methyl)-4-(trifluoromethoxy)-benzamide] was 97%; that for `Cc1ccc2ncn(C)c2c1CNC(=O)c1ccc(OC(F)(F)F)nc1` [Example 138, N-((1,6-dimethyl-1H-benzimidazol-7-yl)methyl)-6-(trifluoromethoxy)-nicotinamide] was 88%; that for `COc1ccc2ncn(C)c2c1CNC(=O)c1cc(F)c(OC(F)F)c(F)c1` [Example 161, 4-(difluoromethoxy)-3,5-difluoro-N-((6-methoxy-1-methyl-1H-benzimidazol-7-yl)methyl)benzamide] was 92%. With `Cc1n[nH]c2cccc(CNC(=O)c3ccc(OC(F)(F)F)c(F)c3)c12` [Example 269, 3-fluoro-N-((3-methyl-1H-indazol-4-yl)methyl)-4-(trifluoromethoxy)-benzamide], the inhibition at 10 µM stood at 87%.

As for `COc1ccc2ncn(C)c2c1CNC(=O)c1ccc(C(F)F)c(Cl)c1` [Example 112, 3-chloro-4-(difluoromethyl)-N-((6-methoxy-1-methyl-1H-benzimidazol-7-yl)methyl)benzamide], the inhibition at 10 µM was found to be 92%. Still for that read-out and setting: the value for `O=C(NCc1cccc2[nH]ncc12)c1cc(Cl)c(Cl)s1` [Example 168, 4,5-dichloro-N-(1H-indazol-4-ylmethyl)thiophene-2-carboxamide] was 90%.

Consider `COc1ccc2ncn(C)c2c1CNC(=O)c1cnc(OC)c(Cl)c1` [Example 57, 5-chloro-6-methoxy-N-((6-methoxy-1-methyl-1H-benzimidazol-7-yl)methyl)nicotinamide], for which the inhibition at 10 µM came to 91%.

As to `COc1ccc2ncn(C)c2c1CNC(=O)Nc1ccc(OC(F)F)cc1` [Example 221, 1-(4-(difluoromethoxy)-phenyl)-3-((6-methoxy-1-methyl-lH-benzimidazol-7-yl)methyl)urea], the inhibition at 10 µM came to 88%. As for `COc1c(F)cc(C(=O)NCc2c(C3CC3)ccc3[nH]nnc23)cc1F` [Example 204, N-((5-cyclopropyl-1H-benzotriazol-4-yl)methyl)-3,5-difluoro-4-methoxybenzamide], the inhibition at 10 µM was found to be 93%.

Regarding `COc1ccc2ncn(C)c2c1CNC(=O)Nc1ccc(Cl)cc1` [Example 257, 1-(4-chlorophenyl)-3-((6-methoxy-1-methyl-1H-benzimidazol-7-yl)methyl)urea], the inhibition at 10 µM was 90%. Turning to `Cn1nnc2cccc(CNC(=O)c3cnc(OC(F)F)c(F)c3)c21` [Example 275, 6-(difluoromethoxy)-5-fluoro-N-[(1-methyl-1H-benzotriazol-7-yl)methyl]pyridine-3-carboxamide], the inhibition at 10 µM amounted to 82%. Turning to `O=C(NCc1c(C2CC2)ccc2[nH]ncc12)c1cc(F)c(Cl)c(F)c1` [Example 90, 4-chloro-N-((5-cyclo-propyl-1H-indazol-4-yl)methyl)-3,5-difluorobenzamide], the inhibition at 10 µM amounted to 94%. With `COc1ccc2ncn(C)c2c1CNC(=O)c1ccc(C(F)(F)F)cc1` [Example 117, N-((6-methoxy-1-methyl-1H-benzimidazol-7-yl)methyl)-4-(trifluoromethyl)benzamide], the inhibition at 10 µM is 90%. Regarding `O=C(NCc1c(C2CC2)ccc2[nH]ncc12)c1ccc(C(F)(F)F)cc1` [Example 61, N-((5-cyclopropyl-1H-indazol-4-yl)methyl)-4-(trifluoromethyl)-benzamide], the inhibition at 10 µM worked out at 94%. In the case of `O=C(NCc1c(C2CC2)ccc2[nH]ncc12)c1ccc(OC(F)F)c(F)c1` [Example 120, N-((5-cyclopropyl-1H-indazol-4-yl)methyl)-4-(difluoromethoxy)-3-fluorobenzamide], the inhibition at 10 µM worked out at 92%.

Consider `Cc1ccc2[nH]nnc2c1CNC(=O)c1cc(F)c(F)c(Cl)c1` [Example 202, 3-chloro-4,5-difluoro-N-((5-methyl-1H-benzotriazol-4-yl)methyl)benzamide], for which the inhibition at 10 µM was found to be 83%. Consider `CCOc1ccc2ncn(C)c2c1CNC(=O)c1csc(C(F)F)c1` [Example 125, 5-(difluoromethyl)-N-((6-ethoxy-1-methyl-1H-benzimidazol-7-yl)methyl)thiophene-3-carboxamide], for which the inhibition at 10 µM came to 92%.

With `Cc1ccc2[nH]ncc2c1CNC(=O)c1ccc(OC(F)(F)F)cc1` [Example 2, N-((5-methyl-1H-indazol-4-yl)methyl)-4-(trifluoromethoxy)benzamide], the inhibition at 10 µM turned out to be 92%. Regarding `Cc1ccc2ncn(C)c2c1CNC(=O)c1cnc(OC(F)F)c(F)c1` [Example 134, 6-(Difluoromethoxy)-N-((1,6-dimethyl-1H-benzimidazol-7-yl)methyl)-5-fluoronicotinamide], the inhibition at 10 µM was 90%. Regarding `COc1ccc2ncn(C)c2c1CNC(=O)c1cc(Cl)cs1` [Example 42, 4-chloro-N-((6-methoxy-1-methyl-1H-benzimidazol-7-yl)-methyl)thiophene-2-carboxamide], the inhibition at 10 µM came out at 87%. Regarding `COc1ccc2ncn(C)c2c1CNC(=O)Nc1ccc(F)c(F)c1` [Example 258, 1-(3,4-difluorophenyl)-3-((6-methoxy-1-methyl-1H-benzimidazol-7-yl)methyl)urea], the inhibition at 10 µM amounted to 85%. Turning to `COc1ncc(C(=O)NCc2cccc3[nH]ncc23)cc1F` [Example 172, 5-fluoro-N-(1H-indazol-4-ylmethyl)-6-methoxynicotinamide], the inhibition at 10 µM was found to be 60%.
